Source: patent US20240109880A1 (Insilico Medicine IP Limited, priority 2021, published 2024)

How the values were obtained:
[1] = Permeability in Caco-2 Assay; assay type: in vitro ADME; settings: human, pH 7.4, 2 hours; for efflux ratio at 2 h, 2 μM: Caco-2, 2.00 μM bi-directionally; for Papp A→B at 2 h, 2 μM: Caco-2, 2.00 μM, pH 7.40
Experimental: Permeability of test compounds was determined in Caco-2 Assay. Caco-2 cells purchased from ATCC were seeded onto […] (PET) in 96-well Corning Insert plates at 1×10^5 cells/cm2, and refreshed medium every 4-5 days until to the 21st to 28th day for confluent cell monolayer formation. The transport buffer in the study was HBSS with 10.0 mM HEPES at pH 7.40±0.05. Test compound was tested at 2.00 μM bi-directionally in duplicate. Digoxin was tested at 10.0 μM bi-directionally in duplicate, while nadolol and metoprolol were tested at 2.00 μM in A to B direction in duplicate. Final DMSO concentration was adjusted to less than 1%. The plate was incubated for 2 hours in CO2 incubator at 37±1° C., with 5% CO2 at saturated humidity without shaking. And all samples after mixed with acetonitrile containing internal standard were centrifuged at 3200×g for 10 min. For nadolol and metoprolol, 200 μL supernatant solution was diluted with 600 μL ultra-pure water for LC-MS/MS analysis. For digoxin and test compounds, 200 μL supernatant solution was diluted with 200 μL ultra-pure water for LC-MS/MS analysis. Concentrations of test and control compounds in starting solution, donor solution, and receiver solution were quantified by LC-MS/MS methodologies, using peak area ratio of analyte/internal standard. After transport assay, lucifer yellow rejection assay was applied to determine the Caco-2 cell monolayer integrity.

KAT6A = KAT6A (Homo sapiens (Human), UniProt Q92794); assay: KAT6A Biochemical Assay (radiometric 384-well, [3H]-Ac-CoA, biotinylated H4(1-30) peptide); settings: 5 nM KAT6A enzyme solution (2×), 60 min reaction at room temperature
Experimental: Inhibition of KAT6A enzymatic activity by test compounds was determined using a radiometric 384-well format assay. A 10-point serial dilution of the test compounds were conducted in DMSO and then a volume of 200 nL was transferred into 384-well assay plate by Echo (Labcyte). 10 μL of 2× enzyme solution (5 nM KAT6A (Active Motif) in assay buffer (50 mM Tris-HCl pH 8.0, 50 mM KCl, 0.1 mM EDTA, 5% glycerol, 1 mM DTT)) was dispensed into assay plate except for low control wells, in which 10 μL of assay buffer was transferred. The plate was incubated at room temperature for 15 min before addition of 10 μL of 2×[^3H]-acetyl coenzyme A (Ac-CoA) and substrate peptide mix solution (500 nM (KAT6A) [^3H]-Ac-CoA (PerkinElmer) and 800 nM (KAT6A) biotinylated H4(1-30) peptide (GL Biochem) in assay buffer) to each well to start reaction. The plate was incubated at room temperature for 60 min (KAT6A), and then the reaction was stopped by adding 10 μL of stop solution (cold Ac-CoA (Cayman) in 1× assay buffer). 25 μL of reaction in each well was transferred to Flashplate (PerkinElmer) and incubated for another 1 hour at room temperature. The plate was read on Microbeta and the inhibition percentage of each compound treated well was calculated based on the equation in h %=(Max−sample)/(Max−Min)*100 where Max is signal from high control wells with enzyme, and Min is signal from low control wells with assay buffer only. The in h % data were further fit in XL-Fit to obtain IC50 values using a 4-parameter logistic (4PL) sigmoidal curve model.

KAT6A, sequence (Q92794 whole entry): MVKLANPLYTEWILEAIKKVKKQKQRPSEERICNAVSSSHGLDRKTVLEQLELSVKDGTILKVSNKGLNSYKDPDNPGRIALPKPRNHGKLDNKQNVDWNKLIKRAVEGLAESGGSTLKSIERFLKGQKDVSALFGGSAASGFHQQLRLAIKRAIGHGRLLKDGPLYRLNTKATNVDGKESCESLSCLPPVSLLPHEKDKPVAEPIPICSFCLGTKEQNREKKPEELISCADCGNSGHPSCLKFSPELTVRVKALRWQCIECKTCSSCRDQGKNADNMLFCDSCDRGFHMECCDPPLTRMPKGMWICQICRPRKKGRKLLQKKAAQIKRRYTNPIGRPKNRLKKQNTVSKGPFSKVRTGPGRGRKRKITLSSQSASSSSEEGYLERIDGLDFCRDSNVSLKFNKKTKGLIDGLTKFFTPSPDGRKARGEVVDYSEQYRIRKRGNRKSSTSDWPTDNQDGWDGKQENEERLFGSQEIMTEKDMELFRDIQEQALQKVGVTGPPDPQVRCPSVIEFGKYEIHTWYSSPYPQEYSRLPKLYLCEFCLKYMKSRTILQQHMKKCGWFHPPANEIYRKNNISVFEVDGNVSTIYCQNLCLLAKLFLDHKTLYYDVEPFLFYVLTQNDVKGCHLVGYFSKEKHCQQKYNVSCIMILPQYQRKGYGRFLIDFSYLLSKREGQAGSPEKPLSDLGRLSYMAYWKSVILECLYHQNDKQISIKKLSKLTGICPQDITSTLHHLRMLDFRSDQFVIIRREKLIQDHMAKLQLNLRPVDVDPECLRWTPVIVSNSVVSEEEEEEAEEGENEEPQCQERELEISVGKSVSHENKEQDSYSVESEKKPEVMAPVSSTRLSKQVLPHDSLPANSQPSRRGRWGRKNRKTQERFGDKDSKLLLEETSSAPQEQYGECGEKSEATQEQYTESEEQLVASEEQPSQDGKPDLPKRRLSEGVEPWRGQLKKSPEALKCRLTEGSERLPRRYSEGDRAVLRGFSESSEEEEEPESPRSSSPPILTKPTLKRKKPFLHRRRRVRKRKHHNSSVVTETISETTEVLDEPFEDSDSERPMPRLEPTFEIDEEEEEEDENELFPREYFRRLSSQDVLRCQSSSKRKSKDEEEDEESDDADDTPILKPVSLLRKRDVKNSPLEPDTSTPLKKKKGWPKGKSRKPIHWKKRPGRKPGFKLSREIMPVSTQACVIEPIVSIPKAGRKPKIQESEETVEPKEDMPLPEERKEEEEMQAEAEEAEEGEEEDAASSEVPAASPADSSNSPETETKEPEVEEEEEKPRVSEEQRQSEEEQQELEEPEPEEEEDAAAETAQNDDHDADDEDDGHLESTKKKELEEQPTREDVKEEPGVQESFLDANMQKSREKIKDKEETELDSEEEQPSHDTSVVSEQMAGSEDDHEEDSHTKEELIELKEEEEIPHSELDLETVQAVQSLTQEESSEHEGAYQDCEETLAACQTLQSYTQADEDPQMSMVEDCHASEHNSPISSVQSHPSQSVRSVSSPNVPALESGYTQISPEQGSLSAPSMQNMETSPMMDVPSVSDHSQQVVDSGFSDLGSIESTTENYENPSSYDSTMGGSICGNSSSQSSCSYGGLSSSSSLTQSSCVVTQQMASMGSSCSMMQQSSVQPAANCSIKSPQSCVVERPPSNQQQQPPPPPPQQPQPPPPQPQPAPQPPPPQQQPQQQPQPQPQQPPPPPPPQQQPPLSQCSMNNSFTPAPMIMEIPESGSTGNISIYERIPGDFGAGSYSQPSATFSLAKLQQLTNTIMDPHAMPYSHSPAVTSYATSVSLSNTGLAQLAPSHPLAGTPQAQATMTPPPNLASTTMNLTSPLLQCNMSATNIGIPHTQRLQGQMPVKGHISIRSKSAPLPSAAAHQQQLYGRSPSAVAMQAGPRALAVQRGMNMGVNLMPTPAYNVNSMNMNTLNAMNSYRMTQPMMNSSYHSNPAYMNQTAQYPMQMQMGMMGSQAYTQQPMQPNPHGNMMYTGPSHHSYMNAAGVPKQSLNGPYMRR

Row | efflux ratio at 2 h, 2 μM [1] | Papp A→B at 2 h, 2 μM [1] [×10⁻⁶ cm/s] | IC50 (KAT6A) [nM] | Compound
1 | 3.66 | 11.8 | 10 to 100 | COc1cccc(OC)c1S(=O)(=O)Nc1noc2cc(Oc3ccccn3)cc(OC)c12 [Compound 9, 2,6-dimethoxy-N-(4-methoxy-6-(pyridin-2-yloxy)benzo[d]isoxazol-3-yl)benzenesulfonamide]
2 | 13.2 | 3.47 | < 10 | COc1cccc(OC)c1S(=O)(=O)Nc1noc2cc(Cn3cccn3)c3c(c12)OCCCC3 [Compound 19]
3 |  |  | 10 to 100 | COc1cc(C)nc(OC)c1S(=O)(=O)Nc1noc2cc(Cn3cccn3)c(F)c(OCF)c12 [Compound 43, N-(6-((1H-pyrazol-1-yl)methyl)-5-fluoro-4-(fluoromethoxy)benzo[d]isoxazol-3-yl)-2,4-dimethoxy-6-methylpyridine-3-sulfonamide]
4 |  |  | 10 to 100 | COc1cccc(OC)c1S(=O)(=O)Nc1noc2cc(Cc3ccccn3)cc(OCF)c12 [Compound 45, N-(4-(fluoromethoxy)-6-(pyridin-2-ylmethyl)benzo[d]isoxazol-3-yl)-2,6-dimethoxybenzenesulfonamide]
5 |  |  | < 10 | COc1ccnc(OC)c1S(=O)(=O)Nc1noc2cc(Cn3cccn3)cc(OCF)c12 [Compound 48, N-(6-((1H-pyrazol-1-yl)methyl)-4-(fluoromethoxy)benzo[d]isoxazol-3-yl)-2,4-dimethoxypyridine-3-sulfonamide]
6 |  |  | 10 to 100 | COc1cc(C2CC2)nc(OC)c1S(=O)(=O)Nc1noc2cc(Cn3cccn3)cc(OCF)c12 [Compound 49, N-(6-((1H-pyrazol-1-yl)methyl)-4-(fluoromethoxy)benzo [d]isoxazol-3-yl)-6-cyclopropyl-2,4-dimethoxypyridine-3-sulfonamide]
7 |  |  | 10 to 1000 | COc1cc(C(F)F)nc(OC)c1S(=O)(=O)Nc1noc2cc(Cn3cccn3)cc(OCF)c12 [Compound 50, N-(6-((1H-pyrazol-1-yl)methyl)-4-(fluoromethoxy)benzo[d]isoxazol-3-yl)-6-(difluoromethyl)-2,4-dimethoxypyridine-3-sulfonamide]
8 |  |  | < 10 | COc1cc(C(F)(F)F)nc(OC)c1S(=O)(=O)Nc1noc2cc(Cn3cccn3)cc(OCF)c12 [Compound 51, N-(6-((1H-pyrazol-1-yl)methyl)-4-(fluoromethoxy)benzo[d]isoxazol-3-yl)-2,4-dimethoxy-6-(trifluoromethyl)pyridine-3-sulfonamide]
9 |  |  | 10 to 100 | CCc1cc(OC)c(S(=O)(=O)Nc2noc3cc(Cn4cccn4)cc(OCF)c23)c(OC)n1 [Compound 52, N-(6-((1H-pyrazol-1-yl)methyl)-4-(fluoromethoxy)benzo[d]isoxazol-3-yl)-6-ethyl-2,4-dimethoxypyridine-3-sulfonamide]
10 |  |  | 10 to 100 | CC#Cc1cc(OC)c(S(=O)(=O)Nc2noc3cc(Cn4cccn4)cc(OCF)c23)c(OC)n1 [Compound 53, N-(6-((1H-pyrazol-1-yl)methyl)-4-(fluoromethoxy)benzo[d]isoxazol-3-yl)-2,4-dimethoxy-6-(prop-1-yn-1-yl)pyridine-3-sulfonamide]
11 |  |  | < 10 | C#Cc1cc(OC)c(S(=O)(=O)Nc2noc3cc(Cn4cccn4)cc(OCF)c23)c(OC)n1 [Compound 54, N-(6-((1H-pyrazol-1-yl)methyl)-4-(fluoromethoxy)benzo[d]isoxazol-3-yl)-6-ethynyl-2,4-dimethoxypyridine-3-sulfonamide]
12 | 12.3 | 1.46 | 10 to 100 | COc1cc(C)nc(OC)c1S(=O)(=O)Nc1noc2cc(Oc3nccs3)cc(OCF)c12 [Compound 55, N-(4-(fluoromethoxy)-6-(thiazol-2-yloxy)benzo[d]isoxazol-3-yl)-2,4-dimethoxy-6-methylpyridine-3-sulfonamide]
13 | 2.84 | 5.28 | < 10 | COc1ccccc1S(=O)(=O)Nc1noc2cc(Oc3nccs3)cc(OCF)c12 [Compound 56, N-(4-(fluoromethoxy)-6-(thiazol-2-yloxy)benzo[d]isoxazol-3-yl)-2-methoxybenzenesulfonamide]
14 |  | 3.38 | < 10 | COc1cc(C)nc(OC)c1S(=O)(=O)Nc1noc2cc(Oc3nccs3)cc(OC)c12 [Compound 57, 2,4-dimethoxy-N-(4-methoxy-6-(thiazol-2-yloxy)benzo[d]isoxazol-3-yl)-6-methylpyridine-3-sulfonamide]
15 | 6.17 | 5.14 | < 10 | COc1cccc(OC)c1S(=O)(=O)Nc1noc2cc(Oc3nccs3)cc(OCF)c12 [Compound 58]
16 | 4.53 | 6.2 | < 10 | COc1cccc(OC)c1S(=O)(=O)Nc1noc2cc(Oc3nccs3)cc(OC)c12 [Compound 59, 2,6-dimethoxy-N-(4-methoxy-6-(thiazol-2-yloxy)benzo[d]isoxazol-3-yl)benzenesulfonamide]
17 | 1.33 | 13.7 | < 10 | COc1ccccc1S(=O)(=O)Nc1noc2cc(Oc3nccs3)cc(OC)c12 [Compound 60, 2-methoxy-N-(4-methoxy-6-(thiazol-2-yloxy)benzo[d]isoxazol-3-yl)benzenesulfonamide]
18 | 1.76 | 9.38 | < 10 | COc1ccccc1S(=O)(=O)Nc1noc2cc(Oc3nccs3)c3c(c12)OCCC3 [Compound 61, 2-methoxy-N-(5-(thiazol-2-yloxy)-3,4-dihydro-2H-chromeno[8,7-d]isoxazol-9-yl)benzenesulfonamide]
19 | 3.16 | 10.6 | < 10 | COc1cccc(OC)c1S(=O)(=O)Nc1noc2cc(Oc3nccs3)c3c(c12)OCCCC3 [Compound 62, 2,6-dimethoxy-N-(6-(thiazol-2-yloxy)-2,3,4,5,9,10-hexahydrooxepino[3′,2′:5,6]benzo[1,2-d]isoxazol-10-yl)benzenesulfonamide]
20 |  |  | < 10 | COc1cccc(OC)c1S(=O)(=O)Nc1noc2cc(Cc3nccs3)cc(OCF)c12 [Compound 65, N-(4-(fluoromethoxy)-6-(thiazol-2-ylmethyl)benzo[d]isoxazol-3-yl)-2,6-dimethoxybenzenesulfonamide]
21 |  |  | < 10 | COc1cc(C)nc(OC)c1S(=O)(=O)Nc1noc2cc(Cn3cccn3)c3c(c12)OCC1CC31 (stereo not drawn) [Compound 69, N-(7-((1H-pyrazol-1-yl)methyl)-5,5a,6,6a-tetrahydrocyclopropa[3,4]chromeno[8,7-d]isoxazol-3-yl)-2,4-dimethoxy-6-methylpyridine-3-sulfonamide]
22 |  | 0.628 |  | COc1cccc(OC)c1S(=O)(=O)Nc1noc2cc(Cn3cccn3)cc(OC)c12 [PF-9363, reference compound]

Row | Compound | efflux ratio at 2 h, 2 μM [1] | Papp A→B at 2 h, 2 μM [1] [×10⁻⁶ cm/s] | IC50 (KAT6A) [nM]
23 | COc1cccc(OC)c1S(=O)(=O)Nc1noc2cc(Oc3ccccn3)cc(OC(F)F)c12 [Compound 22, N-(4-(difluoromethoxy)-6-(pyridin-2-yloxy)benzo[d]isoxazol-3-yl)-2,6-dimethoxybenzenesulfonamide] | 6.87 | 3.45 | 10 to 100
24 | COc1cccc(OC)c1S(=O)(=O)Nc1noc2cc(Oc3ccccn3)c3c(c12)OCC3 [Compound 23, 2,6-dimethoxy-N-(4-(pyridin-2-yloxy)-2,3-dihydrobenzofuro [7,6-d]isoxazol-8-yl)benzenesulfonamide] | 14.2 | 1.3 | < 10
25 | COc1ccnc(OC)c1S(=O)(=O)Nc1noc2cc(Oc3ccccn3)c3c(c12)OCCC3 [Compound 28, 2,4-dimethoxy-N-(5-(pyridin-2-yloxy)-3,4-dihydro-2H-chromeno[8,7-d]isoxazol-9-yl)pyridine-3-sulfonamide] | 9.58 | 2.38 | 10 to 100
26 | COc1cc(C)nc(OC)c1S(=O)(=O)Nc1noc2cc(Cn3cccn3)c(F)c(OC(F)F)c12 [Compound 44, N-(6-((1H-pyrazol-1-yl)methyl)-4-(difluoromethoxy)-5-fluorobenzo[d]isoxazol-3-yl)-2,4-dimethoxy-6-methylpyridine-3-sulfonamide] |  |  | 10 to 100
